For 1 compound, Km results are on record in publication PMC3361708 (Cell Metabolism, 2012).

The test has as its target T1, mAdpn (Mus musculus, UniProt Q91WW7).
T1 sequence (Q91WW7 1-413): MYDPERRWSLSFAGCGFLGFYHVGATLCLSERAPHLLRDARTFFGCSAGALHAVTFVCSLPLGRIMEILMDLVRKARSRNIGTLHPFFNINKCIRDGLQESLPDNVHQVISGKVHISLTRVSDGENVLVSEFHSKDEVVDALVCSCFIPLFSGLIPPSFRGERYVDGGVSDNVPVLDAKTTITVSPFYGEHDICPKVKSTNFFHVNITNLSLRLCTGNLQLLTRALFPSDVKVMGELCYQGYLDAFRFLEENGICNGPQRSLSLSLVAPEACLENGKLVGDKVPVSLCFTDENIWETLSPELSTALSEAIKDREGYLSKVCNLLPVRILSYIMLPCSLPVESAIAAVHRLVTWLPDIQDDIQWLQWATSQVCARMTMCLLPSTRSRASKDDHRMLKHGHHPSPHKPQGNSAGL
Kind of test: radiometric LPAAT assay, TLC, Michaelis-Menten fit. It counts as biochemical. The following applies: co-substrate LPA; labelled compound [1-14C].

On to `CCCCCCCC/C=C\CCCCCCCC(=O)SCCNC(=O)CCNC(=O)[C@H](O)C(C)(C)COP(=O)(O)OP(=O)(O)OC[C@H]1O[C@@H](n2cnc3c(N)ncnc32)[C@H](O)[C@@H]1OP(=O)(O)O` [oleoyl-CoA], for which the Km (commonly the concentration of substrate that gives half-maximal velocity) amounted to 12.5 µM.
